Data published in patent publication US5514561A, “Fluorogenic and chromogenic β-lactamase substrates” (priority 1994, dated 1996).

Assays:
Format in all cases: biochemical
[1] = tested on: β-lactamase; test: Cleavage of chromogenic substrates, diazonium salt added to reaction mixture; conditions: releases 3-aminoindole
Description: Cleavage of the β-lactam ring of cefotaxime indole carbamate or cephalothin indole carbamate produces a cascade of electron migration which releases 3-aminoindole.

[2] = biological target: 237(SER) mutant β-lactamase (Escherichia coli, UniProt P62593, A235S); test: Kinetic rate determinations, 237(SER) mutant
Description: (§1) The fluorogenic β-lactamase substrates of the invention were tested for their ability to be hydrolyzed by β-lactamase with release of the fluorescent moiety. The kinetics of hydrolysis were compared to the kinetics of hydrolysis of nitrocefin. The two fluorogenic substrates tested were hydrolyzed using three mutant β-lactamases found in cephem resistant bacteria to compare the rate of hydrolysis with the wildtype enzyme, TEM-1 (Ambler. Phil. Trans. R. Soc. Lond. 289: 321 (1980); Sougakoff et al. Reviews of Infectious Diseases 10: 879 (1988)).
(§2) Nitrocefin kinetics were determined using a Hewlett-Packard 854A spectrophotometer with Chem Station programing, Hewlett-Packard Company Scientific Instruments Division (Palo Alto, Calif.). The data were fit to an unweighted Michaelis-Menten equation using the non-linear data regression package ENZFITTER (Elsevier-BIOSOFT, Cambridge, United Kingdom). The buffer used for all dilutions was 9:1 (50 mM phosphate buffer pH 7.2: DMSO), designated buffer A. The rate of hydrolysis for nitrocefin was determined at a range of 504-514 nm for 300 sec. […] Rates were determined using from 1-0.004 mL of nitrocefin solution diluted to 1 mL total with buffer A. Rate determining experiments were done using 9 different concentrations of the nitrocefin solution and a 1:25 dilution of each enzyme in buffer A.
(§3) Fluorescence kinetics were determined on a Perkin-Elmer LS-5 fluorescence spectrometer Perkin-Elmer Corp. (Norwalk, Conn.) for duration of 300 sec. […] Rates were determined using the following solutions: a) 10.8 mg cephalothin AMC carbamate dissolved in mL of DMSO diluted to 15 mL with buffer A, and b) 11.9 mg cefotaxime AMC carbamate dissolved in 1 mL DMSO diluted to 15 mL with buffer A. For each experiment 0.1 mL of substrate solution was diluted to 3 mL with buffer A. To this was added 0.03 mL of enzyme solution containing (25:1 dilution of the enzyme in buffer A). Fluorescence was read for 300 sec. The rates were determined for both substrates at this concentration for all enzymes tested.

[3] = biological target: 104(LYS) mutant β-lactamase (Escherichia coli, UniProt P62593, E102K); test: Kinetic rate determinations, 104(LYS) mutant
Description: as §1, §2, §3

[4] = biological target: 238(SER) mutant β-lactamase (Escherichia coli, UniProt P62593, G236S); test: Kinetic rate determinations, 238(SER) mutant
Description: as §1, §2, §3

[5] = biological target: wildtype enzyme, TEM-1 β-lactamase (Escherichia coli, UniProt P62593); test: Kinetic rate determinations, wild type enzyme; conditions: 300 sec, ranking among enzymes; for rate of cleavage (hydrolysis) of fluorogenic substrate: wild type enzyme, fluorescence 365/440 nm
Description: as §1, §2, §3

[6] = tested on: β-lactamase (wild type and all mutant enzymes); test: Kinetic rate determinations, fluorogenic substrates, all enzymes; conditions: by the wild type and all mutant enzymes
Description: as §1
Fluorescence kinetics were determined on a Perkin-Elmer LS-5 fluorescence spectrometer Perkin-Elmer Corp. (Norwalk, Conn.) for duration of 300 sec. Excitation and emission wavelengths were set to 365 and 440 nm with slits of 10 and 3 nm, respectively. Buffer A was used for all dilutions. […] Rates were determined using the following solutions: a) 10.8 mg cephalothin AMC carbamate dissolved in mL of DMSO diluted to 15 mL with buffer A, and b) 11.9 mg cefotaxime AMC carbamate dissolved in 1 mL DMSO diluted to 15 mL with buffer A. For each experiment 0.1 mL of substrate solution was diluted to 3 mL with buffer A. To this was added 0.03 mL of enzyme solution containing (25:1 dilution of the enzyme in buffer A). Fluorescence was read for 300 sec. The rates were determined for both substrates at this concentration for all enzymes tested.

O=C(Cc1cccs1)N[C@@H]1C(=O)N2C(C(=O)O)=C(COC(=O)Nc3c[nH]c4ccccc34)CS[C@H]12 [cephalothin indole carbamate, Cephalothin Aminoindole Carbamate]
product after cleavage with β-lactamase and addition of various diazonium salts [1]: produced a colored precipitate

CO/N=C(\C(=O)N[C@@H]1C(=O)N2C(C(=O)O)=C(COC(=O)Nc3ccc4c(C)cc(=O)oc4c3)CS[C@H]12)c1csc(N)n1 [cefotaxime AMC carbamate, Cefotaxime AMC Carbamate]
increase in hydrolysis rate in comparison to wild type β-lactamase ([2]; fluorescence): 60% | increase in the rate of hydrolysis in comparison to wild type β-lactamase ([3]; 104(LYS) mutation, fluorescence): greater than 100% | increase in the rate of hydrolysis in comparison to wild type β-lactamase ([4]; 238(SER) mutation, fluorescence): greater than 100% | rate of cleavage (hydrolysis) of fluorogenic substrate [5]: cleaved most slowly

O=C(Cc1cccs1)N[C@@H]1C(=O)N2C(C(=O)O)=C(/C=C/c3ccc([N+](=O)[O-])cc3[N+](=O)[O-])CS[C@H]12 [nitrocefin, Nitrocefin, reference compound]
rate of hydrolysis for nitrocefin ([2]; spectrophotometric 504-514 nm, 300 sec, ranking among enzymes): fastest | rate of hydrolysis for nitrocefin ([3]; 104(LYS) mutant, spectrophotometric 504-514 nm, 300 sec, ranking among enzymes): then the 104(LYS) and 238(SER) mutants | rate of hydrolysis for nitrocefin ([4]; 238(SER) mutant, spectrophotometric 504-514 nm, 300 sec, ranking among enzymes): then the 104(LYS) and 238(SER) mutants | rate of hydrolysis for nitrocefin ([5]; wild type, spectrophotometric 504-514 nm): followed by wild type

CO/N=C(\C(=O)N[C@@H]1C(=O)N2C(C(=O)O)=C(COC(=O)Nc3c[nH]c4ccccc34)CS[C@H]12)c1csc(N)n1 [cefotaxime indole carbamate, Cefotaxime Indole Carbamate]
product after cleavage with β-lactamase and addition of various diazonium salts [1]: produced a colored precipitate

Cc1cc(=O)oc2cc(NC(=O)OCC3=C(C(=O)O)N4C(=O)[C@@H](NC(=O)Cc5cccs5)[C@H]4SC3)ccc12 [cephalothin AMC carbamate, Cephalothin AMC Carbamate]
rate of cleavage (hydrolysis) of fluorogenic substrate ([2]; fluorescence 365/440 nm, 300 sec, ranking among enzymes): cleaved fastest | rate of cleavage relative to that of the 237(SER) enzyme ([3]; 104(LYS) mutant, fluorescence 365/440 nm, 300 sec): about half that of the 237(SER) enzyme | rate of cleavage (hydrolysis) of fluorogenic substrate ([4]; 238(SER) mutant, fluorescence 365/440 nm, 300 sec, ranking among enzymes): most slowly | rate of cleavage compared between the two fluorogenic substrates [6]: cleaved faster than the cefotaxime AMC carbamate | rate of cleavage (hydrolysis) of fluorogenic substrate [5]: followed closely by the wild type enzyme
